The target in one assay is T1, human LXRα (Homo sapiens, UniProt Q13133).
T1 construct: biotin (biotinylated); made in house; host or cells: E. coli (crude extract)
T1 sequence (Q13133 1-447): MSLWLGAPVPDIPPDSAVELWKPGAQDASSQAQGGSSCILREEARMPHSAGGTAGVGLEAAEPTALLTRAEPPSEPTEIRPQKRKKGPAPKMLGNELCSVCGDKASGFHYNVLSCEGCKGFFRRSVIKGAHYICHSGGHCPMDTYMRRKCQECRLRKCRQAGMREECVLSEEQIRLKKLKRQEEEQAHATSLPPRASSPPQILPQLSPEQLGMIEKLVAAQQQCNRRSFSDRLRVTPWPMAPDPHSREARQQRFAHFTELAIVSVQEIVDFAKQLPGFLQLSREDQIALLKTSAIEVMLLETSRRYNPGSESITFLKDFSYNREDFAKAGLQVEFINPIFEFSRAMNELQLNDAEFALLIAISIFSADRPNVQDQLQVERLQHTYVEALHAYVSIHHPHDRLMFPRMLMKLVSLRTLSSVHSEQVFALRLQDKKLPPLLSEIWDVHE
In words: Ligand-binding test procedure for human LXRα (3H T0901317 tracer, flash plates). The conditions noted are these: biotinylated hLXRα from E. coli extract; tracer 3H T0901317. As to the method:
II. Ligand-Binding Test Procedure for Human LXRα.
Receptor source: E. coli extract from cells expressing biotinylated hLXRα. Extract was made in a similar buffer as above, but with 50 mM TRIS.
(§1) Washed streptavidin and coated flash plates with wash buffer. Diluted receptor extract to give Bmax ˜4000 cpm and add to the wells. Wrapped the plates in aluminum foil and stored them at +4° C. over night.
(§2) Made a dilution series in DMSO of the test ligands. Made a 5 nM solution of the radioactive tracer in buffer. Mixed 250 μl diluted tracer with 5 μl of the test ligand from each concentration of the dilution series. Washed the receptor-coated flash plates. Added 200 μl per well of the ligand/radiolabel mixture to the receptor-coated flash plates. Wrapped the plates in aluminum foil and incubate at +4° C. over night.
(§3) Aspirated wells, and wash the flashed plates. Sealed the plate. Measured the remaining radioactivity in the plate.

Another assay concerns the target T2, human LXRβ (Homo sapiens, UniProt P55055).
T2 construct: biotin (biotinylated); made in house; host or cells: E. coli (crude extract)
T2 sequence (P55055 1-460): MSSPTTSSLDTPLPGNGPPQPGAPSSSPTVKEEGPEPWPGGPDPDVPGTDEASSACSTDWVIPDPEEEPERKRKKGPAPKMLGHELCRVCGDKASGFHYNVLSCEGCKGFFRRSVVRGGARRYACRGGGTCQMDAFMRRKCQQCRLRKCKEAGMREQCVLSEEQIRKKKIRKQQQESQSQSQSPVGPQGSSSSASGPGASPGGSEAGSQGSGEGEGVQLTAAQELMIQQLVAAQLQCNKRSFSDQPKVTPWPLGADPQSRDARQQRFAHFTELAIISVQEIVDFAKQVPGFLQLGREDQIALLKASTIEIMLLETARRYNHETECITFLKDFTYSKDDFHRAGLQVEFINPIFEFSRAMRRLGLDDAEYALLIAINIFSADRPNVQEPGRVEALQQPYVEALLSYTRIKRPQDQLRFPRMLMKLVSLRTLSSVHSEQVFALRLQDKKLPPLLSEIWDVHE
In words: Ligand-binding test procedure for human LXRβ (3H T0901317 tracer, flash plates). The note with it: biotinylated hLXRβ from E. coli extract; tracer 3H T0901317. As to the method: I. Ligand-Binding Test Procedure for Human LXRβ.
Receptor source: E. coli extract from cells expressing biotinylated hLXRβ. Extract was made in a similar buffer as above, but with 50 mM TRIS.
as §1, §2, §3

Molecules are shown by their SMILES.

As for `CC(C)c1nc2c(C#N)cccn2c1-c1cccc(OCc2cccc(S(C)(=O)=O)c2)c1` [Example 55, 2-isopropyl-3-(3-{[3-(methylsulfonyl)benzyl]oxy}phenyl)imidazo[1,2-a]pyridine-8-carbonitrile], the IC50 at human LXRα is 28500 nM; at human LXRβ, 1100 nM.

For the molecule `CCc1nc2c(C(F)(F)F)cccn2c1-c1cccc(Oc2cccc(S(C)(=O)=O)c2)n1` [Example 88, 2-ethyl-3-{6-[3-(methylsulfonyl)phenoxy]pyridin-2-yl}-8-(trifluoromethyl)imidazo[1,2-a]pyridine], the IC50 at human LXRα and at human LXRβ was greater than 1000 nM each time.

For the molecule `CCc1nc2c(C(F)(F)F)cccn2c1-c1ccc(Oc2cccc(S(C)(=O)=O)c2)cc1` [Example 102, 2-ethyl-3-{4-[3-(methylsulfonyl)phenoxy]phenyl}-8-(trifluoromethyl)imidazo[1,2-a]pyridine], the IC50 on human LXRα was greater than 1000 nM; on human LXRβ it was 336 nM.

As to `CC(C)S(=O)(=O)c1cccc(Oc2cccc(-c3c(C(C)(C)C)nc4c(C#N)cccn34)c2)c1` [Example 80, 2-tert-butyl-3-{3-[3-(isopropylsulfonyl)phenoxy]phenyl}imidazo[1,2-a]pyridine-8-carbonitrile], the IC50 on human LXRα is 526 nM; on human LXRβ it was 16.3 nM.

In the case of `CCS(=O)(=O)c1cccc(Oc2cccc(-c3c(C(C)C)nc4c(C(F)(F)F)cccn34)c2)c1` [Example 26, 2-isopropyl-3-(3-(3-(ethylsulfonyl)phenoxy)phenyl)-8-(trifluoromethyl)imidazo[1,2-a]pyridine], the IC50 at human LXRα amounted to 221 nM; at human LXRβ, 5 nM.

For the molecule `CCc1nc2c(C(F)(F)F)cccn2c1-c1cccc(Oc2ccc(C#N)c(S(C)(=O)=O)c2)c1` [Example 141, 4-{3-[2-ethyl-8-(trifluoromethyl)imidazo[1,2-a]pyridin-3-yl]phenoxy}-2-(methylsulfonyl)benzonitrile], the IC50 at human LXRα is greater than 1000 nM; on human LXRβ, 700 nM.

Turning to `CC(C)c1nc2c(Cl)cccn2c1-c1cccc(Oc2cccc(CS(C)(=O)=O)c2)c1` [Example 117, 8-chloro-2-isopropyl-3-(3-{3-[(methylsulfonyl)methyl]phenoxy}phenyl)imidazo[1,2-a]pyridine], the figures for the IC50 at human LXRα and at human LXRβ were greater than 1000 nM and 460 nM, respectively.

On to `CCc1nc2c(C(F)(F)F)cccn2c1-c1ccc(-c2ccc(S(C)(=O)=O)cc2)cc1` [Example 93, 2-ethyl-3-(4′-(methylsulfonyl)biphenyl-4-yl)-8-(trifluoromethyl)imidazo[1,2-a]pyridine], for which the IC50 on human LXRα is greater than 1000 nM; on human LXRβ, 4080 nM.

For `CCc1nc2c(Cl)cccn2c1-c1cccc(Oc2cccc(S(=O)(=O)N(C)Cc3ccc(OC)cc3)c2)c1` [Example 43, 3-[3-(8-chloro-2-ethylimidazo[1,2-a]pyridin-3-yl)phenoxy]-N-(4-methoxybenzyl)-N-methylbenzenesulfonamide], the IC50 at human LXRα was 39.9 nM; at human LXRβ, 14.7 nM.

Take `CCc1nc2c(Cl)cccn2c1-c1ccc(Oc2cccc(S(=O)(=O)CC)c2)cc1` [Example 106, 8-chloro-2-ethyl-3-{4-[3-(ethylsulfonyl)phenoxy]phenyl}imidazo[1,2-a]pyridine]: the values for the IC50 on human LXRα and on human LXRβ were greater than 1000 nM and 430 nM, respectively.

`CC(C)c1nc2c(Cl)cccn2c1-c1cccc(OCc2cccc(S(C)(=O)=O)c2)c1` [Example 53, 8-chloro-2-isopropyl-3-(3-{[3-(methylsulfonyl)benzyl]oxy}phenyl)imidazo[1,2-a]pyridine]: the IC50 on human LXRα is 1860 nM; at human LXRβ, 137 nM.

For the molecule `CCc1nc2c(Cl)cccn2c1-c1cccc(Oc2cccc(S(N)(=O)=O)c2)c1` [Example 47, 3-[3-(8-chloro-2-ethylimidazo[1,2-a]pyridin-3-yl)phenoxy]benzenesulfonamide], the figures for the IC50 at human LXRα and at human LXRβ were 2140 nM and 151 nM, respectively.

For the molecule `CC(C)S(=O)(=O)c1cccc(Oc2cccc(-c3c(C(C)(C)C)nc4c(C(F)(F)F)cccn34)c2)c1` [Example 77, 2-tert-butyl-3-{3-[3-(isopropylsulfonyl)phenoxy]phenyl}-8-(trifluoromethyl)imidazo[1,2-a]pyridine], the IC50 at human LXRα came to 160 nM; on human LXRβ, 6.1 nM.

Turning to `CC(C)(C)c1nc2c(C#N)cccn2c1-c1cccc(Oc2cccc(CS(C)(=O)=O)c2)c1` [Example 116, 2-tert-butyl-3-(3-{3-[(methylsulfonyl)methyl]phenoxy}phenyl)imidazo[1,2-a]pyridine-8-carbonitrile], the IC50 on human LXRα is greater than 1000 nM; on human LXRβ it was 970 nM.

As to `CCS(=O)(=O)c1cccc(Oc2cccc(-c3c(C(C)(C)C)nc4c(C(F)(F)F)cccn34)c2)c1` [Example 76, 2-tert-butyl-3-{3-[3-(ethylsulfonyl)phenoxy]phenyl}-8-(trifluoromethyl)imidazo[1,2-a]pyridine], the IC50 stood at 135 nM on human LXRα and 5.6 nM at human LXRβ.

Consider `CC(C)S(=O)(=O)c1cccc(Oc2cccc(-c3c(Cc4ccccc4)nc4c(C(F)(F)F)cccn34)c2)c1` [Example 30, 2-benzyl-3-(3-(3-(isopropylsulfonyl)phenoxy)phenyl)-8-(trifluoromethyl)imidazo[1,2-a]pyridine], for which the values for the IC50 on human LXRα and at human LXRβ were 15.8 nM and 1.7 nM, respectively.

As for `Cc1nc2c(C(F)(F)F)cccn2c1-c1cccc(Oc2ccc(C#N)c(S(C)(=O)=O)c2)c1` [Example 142, 2-(methylsulfonyl)-4-{3-[2-methyl-8-(trifluoromethyl)imidazo[1,2-a]pyridin-3-yl]phenoxy}benzonitrile], the IC50 on human LXRα and on human LXRβ was greater than 1000 nM each time.

In the case of `CC(C)c1nc2c(Cl)cccn2c1-c1cccc(Oc2ccc(S(N)(=O)=O)cc2)c1` [Example 99, 4-[3-(8-chloro-2-isopropylimidazo[1,2-a]pyridin-3-yl)phenoxy]benzenesulfonamide], the IC50 at human LXRα and on human LXRβ was greater than 1000 nM throughout.

Regarding `CC(C)c1nc2c(C(F)(F)F)cccn2c1-c1cccc(OCc2ccc(S(C)(=O)=O)cc2)c1` [Example 56, 2-isopropyl-3-(3-{[4-(methylsulfonyl)benzyl]oxy}phenyl)-8-(trifluoromethyl)imidazo[1,2-a]pyridine], the figures for the IC50 on human LXRα and at human LXRβ were 36500 nM and 4190 nM, respectively.

`CCc1nc2c(C#N)cccn2c1-c1cccc(Oc2cccc(S(=O)(=O)N(Cc3ccc(OC)cc3)Cc3ccc(OC)cc3)c2)c1` [Example 45, 3-[3-(8-cyano-2-ethylimidazo[1,2-a]pyridin-3-yl)phenoxy]-N,N-bis(4-methoxybenzyl)benzenesulfonamide]: the IC50 on human LXRα and at human LXRβ was greater than 1000 nM in each case.

For `Cc1nccn1Cc1nc2c(C(F)(F)F)cccn2c1-c1cccc(Oc2cccc(S(C)(=O)=O)c2)c1` [Example 130, 2-[(2-methyl-1H-imidazol-1-yl)methyl]-3-{3-[3-(methylsulfonyl)phenoxy]phenyl}-8-(trifluoromethyl)imidazo[1,2-a]pyridine], the IC50 at human LXRα was greater than 1000 nM; at human LXRβ, 230 nM.

Consider `CCc1nc2c(C#N)cccn2c1-c1cccc(Oc2cccc(S(N)(=O)=O)c2)c1` [Example 50, 3-[3-(8-cyano-2-ethylimidazo[1,2-a]pyridin-3-yl)phenoxy]benzenesulfonamide], for which the figures for the IC50 on human LXRα and at human LXRβ were 14700 nM and 940 nM, respectively.

As to `CC(C)c1nc2c(C#N)cccn2c1-c1cccc(OCc2ccc(S(C)(=O)=O)cc2)c1` [Example 59, 2-isopropyl-3-(3-{[4-(methylsulfonyl)benzyl]oxy}phenyl)imidazo[1,2-a]pyridine-8-carbonitrile], the IC50 at human LXRα and on human LXRβ was greater than 1000 nM throughout.

In the case of `CCc1nc2c(C#N)cccn2c1-c1cccc(Oc2cccc(S(C)(=O)=O)c2)c1` [Example 69, 2-ethyl-3-{3-[3-(methylsulfonyl)phenoxy]phenyl}imidazo[1,2-a]pyridine-8-carbonitrile], the values for the IC50 at human LXRα and on human LXRβ were 2700 nM and 161 nM, respectively.

The values are drawn from patent US20110112135A1, “Imidazo [1,2-A] Pyridine Compounds” (priority 2007, published 2011).
